Melting point data for 32 molecules are collected here from patent US8268840B2, “Pyrimidinyl pyridone inhibitors of kinases” (Roche Palo Alto LLC, priority 2008, dated 2012).

As a reminder, the melting point is the temperature, or range, at which the solid turns liquid. On to `Cc1c(N)c2cnc(N[C@@H]3CCCC[C@@H]3C)nc2n(C2CCC2)c1=O` (racemic) [Compound I-58, 5-Amino-8-cyclobutyl-6-methyl-2-((1R,2S)-2-methyl-cyclohexylamino)-8H-pyrido[2,3-d]pyrimidin-7-one], for which the melting point lay in the range of 160 to 161 °C.

Molecule `COC(=O)N[C@H]1CC[C@H](Nc2ncc3c(N)cc(=O)n(C4CCCCC4)c3n2)CC1` [Compound I-19, [4-(5-Amino-8-cyclohexyl-7-oxo-7,8-dihydro-pyrido[2,3-d]pyrimidin-2-ylamino)-cyclohexyl]-carbamic acid methyl ester] registered a melting point of 193.9 to 198 °C.

The molecule `Cc1c(N)c2cnc(N[C@H]3CC[C@H](N(C)S(C)(=O)=O)CC3)nc2n(C2CCC2)c1=O` [Compound I-24, N-[4-(5-Amino-8-cyclobutyl-6-methyl-7-oxo-7,8-dihydro-pyrido[2,3-d]pyrimidin-2-ylamino)-cyclohexyl]-N-methyl-methanesulfonamide] displayed a melting point of 260 to 261 °C.

Molecule `Nc1cc(=O)n(C2CC2)c2nc(NC3CCCCC3)ncc12` [Compound I-26, 5-Amino-2-cyclohexylamino-8-cyclopropyl-8H-pyrido[2,3-d]pyrimidin-7-one] returned a melting point of 117 to 118 °C.

Take `CCc1c(N)c2cnc(NC3CCCCC3)nc2n(C2CCCC2)c1=O` [Compound I-36, 5-Amino-2-cyclohexylamino-8-cyclopentyl-6-ethyl-8H-pyrido[2,3-d]pyrimidin-7-one]: the melting point lay in the range of 229.8 to 230.5 °C.

The molecule `Nc1cc(=O)n(C2CCCCC2)c2nc(NC3CCC(F)(F)CC3)ncc12` [Compound I-57, 5-Amino-8-cyclohexyl-2-(4,4-difluoro-cyclohexylamino)-8H-pyrido[2,3-d]pyrimidin-7-one] gave a melting point of 240 to 244.1 °C.

With `Nc1cc(=O)n(CC2CC2)c2nc(NC3CCCCC3)ncc12` [Compound I-12, 5-Amino-2-cyclohexylamino-8-cyclopropylmethyl-8H-pyrido[2,3-d]pyrimidin-7-one], the melting point was in the range of 133 to 135 °C.

For `Nc1cc(=O)n(C2CCCC2)c2nc(N[C@H]3CC[C@H](C(=O)N4CCOCC4)CC3)ncc12` [Compound I-13, 5-Amino-8-cyclopentyl-2-[4-(morpholine-4-carbonyl)-cyclohexylamino]-8H-pyrido[2,3-d]pyrimidin-7-one], the melting point was 292.5 to 295.3 °C.

As to `Cc1c(N)c2cnc(N[C@@H]3CCCC[C@H]3C)nc2n(C2CCC2)c1=O` [Compound I-34, 5-Amino-8-cyclobutyl-6-methyl-2-((1R,2R)-2-methyl-cyclohexylamino)-8H-pyrido[2,3-d]pyrimidin-7-one], the melting point lay within 209 to 210 °C.

With `CS(=O)(=O)N1CCC(Nc2ncc3c(N)cc(=O)n(C4CCCCC4)c3n2)CC1` [Compound I-29, 5-Amino-8-cyclohexyl-2-(1-methanesulfonyl-piperidin-4-ylamino)-8H-pyrido[2,3-d]pyrimidin-7-one], the melting point lay within 250 to 254 °C.

Regarding `Nc1cc(=O)n(C2CCCCC2)c2nc(N[C@H]3CC[C@H](O)CC3)ncc12` [Compound I-6, 5-Amino-8-cyclohexyl-2-(4-hydroxy-cyclohexylamino)-8H-pyrido[2,3-d]pyrimidin-7-one], the melting point lay within 292 to 294 °C.

The molecule `CC(=O)N1CCC(Nc2ncc3c(N)cc(=O)n([C@@H]4CC[C@@H](O)C4)c3n2)CC1` (racemic) [Compound I-37, 2-(1-Acetyl-piperidin-4-ylamino)-5-amino-8-((1R,3R)-3-hydroxy-cyclopentyl)-8H-pyrido[2,3-d]pyrimidin-7-one] gave a melting point of 192 to 194 °C.

Molecule `Nc1cc(=O)n(Cc2ccccc2)c2nc(NC3CCOCC3)ncc12` [Compound I-69, 5-Amino-8-benzyl-2-(tetrahydro-pyran-4-ylamino)-8H-pyrido[2,3-d]pyrimidin-7-one] showed a melting point of 245.6 to 246.8 °C.

`CC(=O)c1c(N)c2cnc(NC3CCCCC3)nc2n(C2CCC2)c1=O` [Compound I-68, 6-Acetyl-5-amino-8-cyclobutyl-2-cyclohexylamino-8H-pyrido[2,3-d]pyrimidin-7-one] showed a melting point of 256 to 257 °C.

`COC(=O)N[C@H]1CC[C@H](Nc2ncc3c(N)cc(=O)n(C4CC4)c3n2)CC1` [Compound I-39, [4-(5-Amino-8-cyclopropyl-7-oxo-7,8-dihydro-pyrido[2,3-d]pyrimidin-2-ylamino)-cyclohexyl]-carbamic acid methyl ester] showed a melting point of 257 to 259 °C.

`Nc1cc(=O)n(CC2CC2)c2nc(NC3CCOCC3)ncc12` [Compound I-46, 5-Amino-8-cyclopropylmethyl-2-(tetrahydro-pyran-4-ylamino)-8H-pyrido[2,3-d]pyrimidin-7-one] came in with a melting point of 135 to 137.4 °C.

`Nc1cc(=O)n(C2CC2)c2nc(N[C@H]3CC[C@H](O)CC3)ncc12` [Compound I-22, 5-Amino-8-cyclopropyl-2-(4-hydroxy-cyclohexylamino)-8H-pyrido[2,3-d]pyrimidin-7-one] showed a melting point of 256.3 to 258.7 °C.

Take `Nc1cc(=O)n(C2CCCCC2)c2nc(NC3CCCCC3)ncc12` [Compound I-32, 5-Amino-8-cyclohexyl-2-cyclohexylamino-8H-pyrido[2,3-d]pyrimidin-7-one]: the melting point lay within 243.1 to 244.9 °C.

Take `CC(=O)N1CCC(Nc2ncc3c(N)c(C)c(=O)n(C4CCCC4)c3n2)CC1` [Compound I-59, 2-(1-Acetyl-piperidin-4-ylamino)-5-amino-8-cyclopentyl-6-methyl-8H-pyrido[2,3-d]pyrimidin-7-one]: the melting point was 281 to 283 °C.

As for `Cc1c(N)c2cnc(N[C@H]3CC[C@H](C(=O)N4CCOCC4)CC3)nc2n(C2CCCC2)c1=O` [Compound I-10, 5-Amino-8-cyclopentyl-6-methyl-2-[4-(morpholine-4-carbonyl)-cyclohexylamino]-8H-pyrido[2,3-d]pyrimidin-7-one], the melting point was in the range of 186.8 to 188 °C.

`Nc1cc(=O)n(C2CCCCC2)c2nc(NC3CCOCC3)ncc12` [Compound I-51, 5-Amino-8-cyclohexyl-2-(tetrahydro-pyran-4-ylamino)-8H-pyrido[2,3-d]pyrimidin-7-one] registered a melting point of 160 to 164 °C.

`Cc1c(N)c2cnc(NC3CCN(S(C)(=O)=O)CC3)nc2n(C2CCC2)c1=O` [Compound I-40, 5-Amino-8-cyclobutyl-2-(1-methanesulfonyl-piperidin-4-ylamino)-6-methyl-8H-pyrido[2,3-d]pyrimidin-7-one] registered a melting point of 265.3 to 267 °C.

`CC(C)c1c(N)c2cnc(NC3CCCCC3)nc2n(C2CCC2)c1=O` [Compound I-49, 5-Amino-8-cyclobutyl-2-cyclohexylamino-6-isopropyl-8H-pyrido[2,3-d]pyrimidin-7-one] returned a melting point of 277.5 to 278 °C.

On to `CCn1c(=O)cc(N)c2cnc(NC3CCOCC3)nc21` [Compound I-50, 5-Amino-8-ethyl-2-(tetrahydro-pyran-4-ylamino)-8H-pyrido[2,3-d]pyrimidin-7-one], for which the melting point was 235 to 238.2 °C.

`Nc1c(-c2ccccc2)c(=O)n(C2CCC2)c2nc(NC3CCCCC3)ncc12` [Compound I-31, 5-Amino-8-cyclobutyl-2-cyclohexylamino-6-phenyl-8H-pyrido[2,3-d]pyrimidin-7-one] displayed a melting point of 160 to 161 °C.

Molecule `COC(=O)N[C@H]1CC[C@H](Nc2ncc3c(N)cc(=O)n(C4CCC4)c3n2)CC1` [Compound I-2, [4-(5-Amino-8-cyclobutyl-7-oxo-7,8-dihydro-pyrido[2,3-d]pyrimidin-2-ylamino)-cyclohexyl]-carbamic acid methyl ester] displayed a melting point of 154.3 to 156 °C.

Molecule `Cc1c(N)c2cnc(NC3CCCCC3)nc2n([C@@H]2CCOC2)c1=O` [Compound I-44, 5-Amino-2-cyclohexylamino-6-methyl-8-(R)-tetrahydro-furan-3-yl-8H-pyrido[2,3-d]pyrimidin-7-one] gave a melting point of 225 to 226 °C.

Take `Nc1cc(=O)n(C2CCCC2)c2nc(NC3CCCCC3)ncc12` [Compound I-17, 5-Amino-2-cyclohexylamino-8-cyclopentyl-8H-pyrido[2,3-d]pyrimidin-7-one]: the melting point is 125 to 130 °C.

In turn, `CCn1c(=O)cc(N)c2cnc(NC3CCCCC3)nc21` [Compound I-21, 5-Amino-2-cyclohexylamino-8-ethyl-8H-pyrido[2,3-d]pyrimidin-7-one] gave a melting point of 147.7 to 150.1 °C.

Turning to `Cc1c(N)c2cnc(N[C@H]3CCCC[C@@H]3C)nc2n(C2CCC2)c1=O` (racemic) [Compound I-60, 5-Amino-8-cyclobutyl-6-methyl-2-((1S,2S)-2-methyl-cyclohexylamino)-8H-pyrido[2,3-d]pyrimidin-7-one], the melting point lay in the range of 209 to 210 °C.

As for `Nc1cc(=O)n(C2CCCC2)c2nc(Nc3ccccc3)ncc12` [Compound I-45, 5-Amino-8-cyclopentyl-2-phenylamino-8H-pyrido[2,3-d]pyrimidin-7-one], the melting point lay within 128.3 to 130 °C.

In turn, `Nc1c(-c2ccccc2Cl)c(=O)n(C2CCC2)c2nc(NC3CCCCC3)ncc12` [Compound I-16, 5-Amino-6-(2-chloro-phenyl)-8-cyclobutyl-2-cyclohexylamino-8H-pyrido[2,3-d]pyrimidin-7-one] had a melting point of 175 to 176 °C.
